Results as given in PMC5662223, “Biophysical and functional characterization of the N-terminal domain of the cat T1R1 umami taste receptor expressed in Escherichia coli” (PLoS ONE, 2017).
“Also recorded” adds a separate entry of the source.

Key:
[1] = biological target: cT1R1-NTD (N-terminal domain of the cat T1R1 taste receptor) (Felis catus, UniProt A0ABI7Z2I4); test: Ligand binding assay by intrinsic tryptophan fluorescence of refolded cT1R1-NTD; conditions: for synergetic effect of IMP on L-amino acid binding (shift of binding curve): 0.3 μM IMP final concentration; for maximal amplitude of cT1R1-NTD fluorescence induced by the amino acid in presence of IMP: compared to the other tested L-amino acids
Experimental: The intrinsic fluorescence of cT1R1-NTD was measured as previously described by Nie et al. using a Cary Eclipse spectrofluorometer (Varian Instruments) equipped with a Peltier temperature control unit. Sample proteins were excited at 295 nm and emission spectra were recorded from 300 to 400 nm, with 5-nm and 10-nm bandwidth for emission and excitation, respectively. For titration experiments, fluorescence spectra were recorded using 0.5 μM protein solution in 50 mM Tris-HCl pH 8.0, 150 mM NaCl, 1mM DTT and 0.1 mM DDM. Ligand solutions were freshly prepared in the same buffer. Successive aliquots of potential ligands were added to 400 μL of cT1R1-NTD solution. The temperature was kept constant at 20°C. Fluorescence measurements were corrected for dilution, bleaching and nonspecific buffer quenching. Kd values and standard errors were calculated from a plot of the ratio between the fluorescence intensity variation and the maximum of fluorescence intensity variation versus concentration of total ligand, obtained with a standard non-linear regression method and using one site saturation ligand binding equation using SigmaPlot software. […] The Kd values of ligand-receptor interactions were determined using Eq (1) ΔF/ΔFmax = Bmax×[L]/(Kd+[L]) (1) Where Kd value is the apparent dissociation constant, ΔF is the difference between the fluorescence intensity at a given concentration of ligand and the fluorescence intensity in the absence of ligand, and ΔFmax is the difference at infinite ligand concentration [L], Bmax is the maximum fluorescence signal, [L] corresponds to the concentration of ligands. The reported Kd values are the average of more than nine measurements performed on at least three independently refolded protein samples. […] Statistical analyses: Dunnett’s test was used to determine the statistical significance between data means.

human T1R3-NTD = biological target: human T1R3-NTD; design: method as in PMID 22450161, PMID 22909933; conditions: cited from earlier work
[2] = ligand alone, no IMP, Fig 6: 100 μM final concentration, excitation 295 nm, emission 340 nm

Chain of cT1R1-NTD (N-terminal domain of the cat T1R1 taste receptor) (A0ABI7Z2I4 entry or part of it): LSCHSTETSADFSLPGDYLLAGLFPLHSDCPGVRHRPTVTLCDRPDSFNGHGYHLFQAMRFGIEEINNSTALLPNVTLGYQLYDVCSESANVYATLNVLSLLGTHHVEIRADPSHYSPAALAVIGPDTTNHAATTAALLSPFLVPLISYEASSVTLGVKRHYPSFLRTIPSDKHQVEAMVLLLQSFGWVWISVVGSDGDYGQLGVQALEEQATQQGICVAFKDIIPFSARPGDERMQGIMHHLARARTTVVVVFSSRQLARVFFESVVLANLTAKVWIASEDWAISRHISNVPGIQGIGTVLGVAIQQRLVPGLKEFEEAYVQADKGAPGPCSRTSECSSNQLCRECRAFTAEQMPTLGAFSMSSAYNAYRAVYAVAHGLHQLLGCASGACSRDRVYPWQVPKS

SMILES | synergetic effect of IMP on L-amino acid binding (shift of binding curve) [1] | effect on cT1R1-NTD intrinsic fluorescence [1, 2] | also measured
Nc1nc2c(ncn2[C@@H]2O[C@H](COP(=O)(O)O)[C@@H](O)[C@H]2O)c(=O)[nH]1 [GMP, guanosine-5’-monophosphate] | – | – | effect on cT1R1-NTD intrinsic fluorescence ([1]; GMP alone at low concentrations (below 1 μM)): fluorescence enhancement
C[C@H](N)C(=O)O [L-Ala, L-alanine] | relatively modest | saturable intrinsic fluorescent enhancement | –
N=C(N)NCCC[C@H](N)C(=O)O [L-Arg] | relatively modest | saturable intrinsic fluorescent enhancement | maximal amplitude of cT1R1-NTD fluorescence induced by the amino acid in presence of IMP ([1]; 0.3 μM IMP): increased
N[C@@H](CS)C(=O)O [L-Cys] | – | no effect; also recorded: does not affect cT1R1-NTD fluorescence | fluorescence enhancement of cT1R1-NTD generated by 0.3 μM IMP in the presence of the amino acid ([1]; 0.3 μM IMP, compared with absence of L-Cys): not significantly different
N[C@@H](Cc1c[nH]cn1)C(=O)O [L-His, L-histidine] | more pronounced | saturable intrinsic fluorescent enhancement | maximal amplitude of cT1R1-NTD fluorescence induced by the amino acid in presence of IMP ([1]; 0.3 μM IMP): increased
CC[C@H](C)[C@H](N)C(=O)O [L-Ile] | relatively modest | saturable intrinsic fluorescent enhancement | –
OC[C@H]1O[C@H](O[C@]2(CCl)O[C@H](CCl)[C@@H](O)[C@@H]2O)[C@H](O)[C@@H](O)[C@H]1Cl [sucralose] | – | – | binding affinity (human T1R3-NTD): millimolar range
